Data set [1] relates to 5-hydroxytryptamine receptors. As to conditions: anesthetized animals; cited from earlier work.
Another data set has as its system cardiovascular variables. Put plainly: Radiotelemetry of blood pressure and heart period after GR38032F (Example 2). In kind it is in vivo, rat (Sprague-Dawley). The following applies: 1 mg/kg i.p. An excerpt: After surgery, all animals were allowed to recover for one week before being subjected to another surgery that involved implantation of a radiotelemetry transmitter (TA11-PXT, Data Sciences International, St. Paul, Minn.) for monitoring blood pressure (BP) and heart period (HP), estimated as pulse interval. After the animals were anesthetized (as described above), the hair from the subxiphoid space to the pelvis was removed. The entire area was scrubbed with iodine and rinsed with alcohol and saline. A 4–6 cm midline abdominal incision was made to allow good visualization of the area from the bifurcation of the aorta to the renal arteries. A retractor was used to expose the contents of the abdomen and the intestine was held back using saline moistened gauze sponges. The aorta was dissected from the surrounding fat and connective tissues using sterile cotton applicators. A 3-0 silk suture was placed beneath the aorta and traction was applied to the suture to restrict the blood flow. Then the implant (TA11-PXT) was held by forceps while the aorta was punctured just cranial to the bifurcation using a 21-gauge needle bent at the beveled end. The tip of the catheter was inserted under the needle using the needle as a guide until the thin-walled BP sensor section was within the vessel. Finally, one drop of tissue adhesive (Vetbond®, 3M, Minneapolis, Minn.) was applied to the puncture site and covered with a small square of cellulose fiber (approximately 5 mm^2) so as to seal the puncture after catheter insertion. The radio implant was attached to the abdominal wall by 3-0 silk suture, and the incision was closed in layers. After the second surgery, animals were again allowed a one week recovery period prior to administration of the serotonin receptor antagonist and subsequent physiological recording.
Physiological parameters (see below) from each animal were recorded on 2 occasions in random order, with recordings for an individual animal separated for at least 3 days. Fifteen minutes prior to each recording each animal received a systemic injection (1 ml/kg intraperitoneal bolus injection) of either saline (control) or 1 mg/kg of ondansetron (GR38032F; 1,2,3,9-tetrahydro-9-methyl-3-[(2-methylimidazol-1-yl)methyl]carbazole-4-one, hydrochloride, dihydrate; Glaxo Wellcome, Inc., Research Triangle Park, N.C.). Polygraphic recordings were made from hours 10:00–16:00.
Similar software (Experimenters' Workbench; Datawave Technologies, Longmont, Colo.) was employed to analyze the blood pressure waveform; for each beat of each recording, systolic (SBP) and diastolic (DBP) blood pressures and pulse interval were measured. The pulse interval provided a beat by beat estimate of HP. Mean BP (MBP) was estimated according to the weighted average of SBP and DBP for each beat: MBP=DBP+(SBP−DBP)/3. The parameters for each beat were also classified according to the sleep/wake state and recording hour during which they occurred.

Consider `Cc1nccn1CC1CCc2c(c3ccccc3n2C)C1=O.Cl.O.O` (centres unmarked) [GR38032F, 1,2,3,9-tetrahydro-9-methyl-3-[(2-methylimidazol-1-yl)methyl]carbazole-4-one, hydrochloride, dihydrate], for which the “antagonism of agonist-induced transient apnea” value in data set [1] is “significantly antagonized”. For the same compound, in the data set on cardiovascular variables (NREM sleep, mean ± SE), the “HP, NREM” value worked out at 189 ± 3 ms and the “Mean BP, NREM” value is listed as 112 ± 17 mm Hg. For the same compound, in the data set with cardiovascular variables (REM sleep, mean ± SE), the “HP, REM” value came to 190 ± 3 ms and the “Mean BP, REM” value was found to be 110 ± 17 mm Hg. Also, the “effect on cardiovascular variables (MBP and HP during W, NREM, REM sleep)” value in the data set on cardiovascular variables (p>0.1 for each variable) is reported as “no effect on any cardiovascular variable”. For the same compound, in the data set with cardiovascular variables (wakefulness, mean ± SE), the “HP, W” value was determined as 183 ± 3 ms and the “Mean BP, W” value is reported as 113 mm Hg.

(Values after patent US7160898B2, “Pharmacological treatment for sleep apnea” (Board of Trustees of The University of Illinois, priority 2002, dated 2007).)
